Some test systems named below: COLO 205; DU-145; EKVX; HOP-62; KM12; MDA-MB-231; NCI-H23; NCI-H460; NCI-H522; OVCAR-4; RPMI-8226; SF-268; SK-MEL-2; SK-MEL-5; SN12C; SW-620; T47D; TK-10; UACC-62; HCC 2998.
Holding throughout (experiment): DTP human tumour cell line panel, 48 h

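Each compound was tested at five concentrations against cells in 96-well plates for 48 hours. At the GI50, growth is halved.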 Active and inactive are the calls of the source. Rule as the data show it: active = GI50 up to about 1.1 µM and inactive = higher.

Take `NC(CSC1(c2ccc(Cl)cc2)c2ccccc2-c2ccccc21)C(=O)O` (configuration not stated): the GI50 is 15.5 µM (inactive) in the assay on COLO 205; 34.5 µM (inactive) with DU-145; 67.1 µM (inactive) in the assay with EKVX; 18.7 µM (inactive) in the assay with HOP-62; 24.1 µM (inactive) with KM12; 18 µM (inactive) in the assay with MDA-MB-231. Also, the GI50 is 19.1 µM (inactive) with NCI-H23; 18.1 µM (inactive) in the assay on NCI-H460; 15.4 µM (inactive) in the assay with NCI-H522; 22.2 µM (inactive) with OVCAR-4; 12.3 µM (inactive) in the assay on RPMI-8226; 20.5 µM (inactive) in the assay with SF-268. For the same compound, the GI50 with SK-MEL-2 was 20.9 µM (inactive); in the assay with SK-MEL-5, 16.2 µM (inactive); in the assay on SN12C, 19.1 µM (inactive); with SW-620 it was 42.6 µM (inactive); in the assay on T47D, 29 µM (inactive); with TK-10, 24.8 µM (inactive). Besides, in the assay on UACC-62, the GI50 was 15.4 µM (inactive).

Take `Cc1nnc2n(c1=O)CCN2C`: the GI50 in the assay with COLO 205, with DU-145, in the assay with EKVX, with HCC 2998, with HOP-62 and in the assay with KM12 was > 100 µM (inactive) each time. The GI50 in the assay with MDA-MB-231, in the assay on NCI-H23, with NCI-H460, in the assay with OVCAR-4, with RPMI-8226 and in the assay on SF-268 was > 100 µM (inactive) in each case. Moreover, the GI50 in the assay on SK-MEL-2, in the assay on SK-MEL-5, in the assay on SN12C, in the assay with SW-620, with T47D and in the assay with TK-10 was > 100 µM (inactive) each time. Further, the GI50 with UACC-62 is > 100 µM (inactive).

On to `O=c1c(Cl)c(Cl)c(=O)c2sc3cc(Cl)ccc3[nH]c1=2`, for which the GI50 is 90.4 µM (inactive) in the assay on COLO 205; > 100 µM (inactive) in the assay with DU-145; 14 µM (inactive) with EKVX; > 100 µM (inactive) in the assay with HOP-62; > 100 µM (inactive) in the assay with KM12; 2.04 µM (inactive) in the assay on MDA-MB-231. The GI50 in the assay with NCI-H23 is 23.3 µM (inactive); in the assay on NCI-H460, > 100 µM (inactive); in the assay with NCI-H522, 16.1 µM (inactive); in the assay on OVCAR-4, 5.66 µM (inactive); in the assay on RPMI-8226, 4 µM (inactive); in the assay with SF-268 it was 38.6 µM (inactive). The GI50 with SK-MEL-2 was > 100 µM (inactive); with SK-MEL-5 it was 25.1 µM (inactive); in the assay on SW-620, 20.3 µM (inactive); in the assay with T47D it was 25.9 µM (inactive); in the assay with TK-10 it was 65.6 µM (inactive); with UACC-62, 23.4 µM (inactive).

In the case of `O=[N+]([O-])c1cn[n+]([O-])c2ccccc12`, the GI50 in the assay on COLO 205 is 13.2 µM (inactive); in the assay on DU-145, 1.05 µM (active); with EKVX, 12.9 µM (inactive); in the assay with HCC 2998, 1.7 µM (inactive); with HOP-62, 12.9 µM (inactive); in the assay on KM12, 5.36 µM (inactive). Also, the GI50 was 13.2 µM (inactive) with MDA-MB-231; 14.7 µM (inactive) in the assay with NCI-H23; 4.61 µM (inactive) in the assay on NCI-H460; 2.03 µM (inactive) with RPMI-8226; 4.59 µM (inactive) with SF-268; 13.2 µM (inactive) with SK-MEL-5. In addition, the GI50 is 8.83 µM (inactive) with SN12C, 1.98 µM (inactive) in the assay with SW-620, 3.7 µM (inactive) with T47D and 12.9 µM (inactive) in the assay with TK-10.

For `Cc1cc(C)c2nc3c(c(C(O)C4CCCCN4)c2c1)CC/C3=C\c1ccc(Cl)cc1` (configuration not stated), the GI50 in the assay with COLO 205 is 41 µM (inactive); with DU-145 it was 81.1 µM (inactive); in the assay on EKVX, 43.2 µM (inactive); in the assay with HOP-62, 75.9 µM (inactive); with KM12, 64.3 µM (inactive); with MDA-MB-231, 73.3 µM (inactive). Further, the GI50 was 85.9 µM (inactive) with NCI-H23; 32.6 µM (inactive) with NCI-H460; 34 µM (inactive) in the assay on NCI-H522; 58.9 µM (inactive) in the assay with OVCAR-4; 40.7 µM (inactive) in the assay on RPMI-8226; > 100 µM (inactive) in the assay on SF-268. Moreover, the GI50 with SK-MEL-2 was 64.9 µM (inactive); with SK-MEL-5, 28.9 µM (inactive); in the assay with SN12C, 38.1 µM (inactive); in the assay on SW-620, 55.3 µM (inactive); with T47D, 30.3 µM (inactive); in the assay with TK-10, > 100 µM (inactive). In addition, the GI50 in the assay with UACC-62 is 65 µM (inactive).

Consider `N=C(N)N/N=C/c1nc2sccn2c1[N+](=O)[O-]`, for which the GI50 in the assay on COLO 205 was 16.2 µM (inactive); with DU-145, 22.3 µM (inactive); with EKVX, 34.2 µM (inactive); in the assay with HOP-62 it was 37.8 µM (inactive); in the assay on KM12 it was 16.6 µM (inactive); with MDA-MB-231, 26.2 µM (inactive). Also, the GI50 in the assay on NCI-H23 was 18.1 µM (inactive); in the assay with NCI-H460, 18.5 µM (inactive); in the assay on NCI-H522, 21.6 µM (inactive); in the assay on OVCAR-4 it was 13.7 µM (inactive); with RPMI-8226, 82.4 µM (inactive); in the assay with SF-268, 33.3 µM (inactive). Also, the GI50 in the assay with SK-MEL-2 is 19 µM (inactive); in the assay with SK-MEL-5 it was 18.7 µM (inactive); with SN12C, 37.5 µM (inactive); in the assay on SW-620, 29.4 µM (inactive); in the assay with T47D it was 18.2 µM (inactive); in the assay with TK-10, 85.3 µM (inactive). In addition, the GI50 in the assay on UACC-62 is 30.9 µM (inactive).

As for `CN(C(=O)Cc1ccc(Cl)c(Cl)c1)[C@H]1CCCC[C@@H]1[N+]1(C)CCCC1`, the GI50 in the assay with COLO 205, with DU-145, in the assay on EKVX, with HOP-62, with KM12 and in the assay with MDA-MB-231 was > 100 µM (inactive) throughout. For the same compound, the GI50 in the assay with NCI-H23, with NCI-H522, with OVCAR-4, in the assay on RPMI-8226, with SF-268 and in the assay with SK-MEL-2 was > 100 µM (inactive) each time. Besides, the GI50 in the assay with SK-MEL-5 is 71.6 µM (inactive); with SN12C it was > 100 µM (inactive); in the assay on SW-620 it was > 100 µM (inactive); with T47D, > 100 µM (inactive); in the assay with TK-10, > 100 µM (inactive); in the assay with UACC-62, > 100 µM (inactive).

For the compound `CCC1(c2ccc(N3C(=O)c4cc(OC)c(OC)cc4C3=O)cc2)CCC(=O)NC1=O` (configuration not stated), the GI50 with COLO 205, in the assay on DU-145, in the assay with EKVX, in the assay on HCC 2998, in the assay on HOP-62 and in the assay on KM12 was > 10 µM (inactive) in each case. In addition, the GI50 with MDA-MB-231, in the assay with NCI-H23, in the assay with NCI-H460, in the assay on OVCAR-4, in the assay with RPMI-8226 and in the assay on SF-268 was > 10 µM (inactive) each time. In addition, the GI50 in the assay with SK-MEL-2, in the assay on SK-MEL-5, in the assay with SN12C, in the assay with SW-620, in the assay with T47D and in the assay with TK-10 was > 10 µM (inactive) each time. Besides, the GI50 in the assay on UACC-62 was > 10 µM (inactive).

`CCOP1(=O)OCC2OC(n3cnc4c(N)ncnc43)C(O)C2O1.c1ccccc1` (configuration not stated): the GI50 with COLO 205, in the assay on DU-145, in the assay with EKVX, in the assay on HOP-62, in the assay on KM12 and in the assay with MDA-MB-231 was > 100 µM (inactive) each time. Moreover, the GI50 in the assay on NCI-H460, in the assay on NCI-H522, in the assay with OVCAR-4, in the assay with RPMI-8226, in the assay with SF-268 and with SK-MEL-2 was > 100 µM (inactive) each time. Further, the GI50 with SK-MEL-5, in the assay on SN12C, with SW-620, in the assay on T47D, in the assay with TK-10 and in the assay with UACC-62 was > 100 µM (inactive) in each case.

Regarding `CCOc1ccc(/N=N/C2C(=O)N(C(=O)CC(=O)Nc3ccc(C)cc3)N=C2C)cc1` (configuration not stated), the GI50 with COLO 205 is > 100 µM (inactive); with DU-145, 38.6 µM (inactive); in the assay on EKVX, 6.68 µM (inactive); with HCC 2998, 19 µM (inactive); in the assay with HOP-62, 16 µM (inactive); with KM12, 8.47 µM (inactive). For the same compound, the GI50 in the assay with MDA-MB-231 is 17 µM (inactive); with NCI-H23, 26.5 µM (inactive); with NCI-H460, 14.8 µM (inactive); with OVCAR-4, 25.3 µM (inactive); in the assay with SF-268, 22.3 µM (inactive); in the assay with SK-MEL-2, 26.6 µM (inactive). Also, the GI50 in the assay with SK-MEL-5 was 72.3 µM (inactive); in the assay on SN12C it was 35.2 µM (inactive); with SW-620 it was 21.6 µM (inactive); in the assay on T47D, 37.8 µM (inactive); in the assay with TK-10 it was 24.8 µM (inactive); in the assay on UACC-62 it was 16.7 µM (inactive).

In the case of `O=c1[nH][nH]c(=S)c(=O)[nH]1`, the GI50 in the assay with COLO 205, with DU-145, with EKVX, in the assay with HOP-62, with KM12 and in the assay on MDA-MB-231 was > 100 µM (inactive) each time. For the same compound, the GI50 in the assay with NCI-H23, in the assay on NCI-H460, in the assay with NCI-H522, in the assay on OVCAR-4, in the assay on RPMI-8226 and in the assay with SF-268 was > 100 µM (inactive) in each case. In addition, the GI50 in the assay with SK-MEL-2, with SK-MEL-5, with SN12C, with SW-620, with T47D and in the assay with TK-10 was > 100 µM (inactive) in each case. In addition, the GI50 with UACC-62 is > 100 µM (inactive).
